Data published in article PMC7356787, “Structure-Activity Relationships for the Anaesthetic and Analgaesic Properties of Aromatic Ring-Substituted Ketamine Esters” (Molecules, 2020).

Experiments:
[1] = system: rats; assay: Anaesthetic assessment by continuous intravenous infusion in rats (loss and return of righting reflex); assay type: in vivo; conditions: iv; rat, i.v. infusion starting at 20 mg/kg/min; measure of sedative potency; mean (SEM); read-out: Sedation LORR: minimal dose for loss of righting reflex (SEM)
Method: (§1) The compounds were evaluated for their ability to anaesthetise rats when administered by continuous intravenous infusion, as reported previously. Compounds were administered to initially deliver 20 mg/kg/min (weight-adjusted flow) to achieve a pedal withdrawal reflex score (PWR = 1), then titrated to maintain loss of righting reflex (LORR) for 10 min. Three rats were used in each study, with each group of rats also acting as their own ketamine control. Data were collected on the total dose of drug (mg/kg), to achieve LORR and a PWR = 1, and on the time (in seconds, from cessation of the infusion) to recovery of righting reflex (RORR) (recovery from the hypnotic anaesthesia effect). Given the complexity of the experimental protocol, the total dose for LORR (Table 1) is very consistent, with ranges of only 1.5-fold within each group. The consistency of the post-sedation recovery times are expectedly lower, with ranges of about 2.5-fold. During recovery the rats were monitored for multiple signs of behavioural dysfunction (see biology section for details) and the sum of these scores (from 0 to 4, with 0 being no effect and 4 being severe dysfunction) is given in Table 2. IC50 values for inhibition of the NMDA receptor were conducted by Eurofins PanLabs, Taiwan.
(§2) All animal experiments were conducted at the Ruakura Research Centre, Hamilton, New Zealand, using experimental protocols reviewed and approved by the Ruakura Animal Ethics Committee (ethics ref 12604/13786). Adult female Sprague-Dawley rats of approximately 250–350 g were evaluated in both anaesthetic and analgaesic study protocols. All study agents were delivered by tail vein cannula connected via minibore extension tubing to mechanised infusion pump.
(§3) Following acquisition of baseline physiologic parameters (heart rate, respiratory rate, PWR, and righting reflex (RR)) ketamine or an experimental compound at 10mg/mL were commenced at a rate (weight-adjusted) to deliver 20 mg/kg/min. Dose to loss of righting reflex (LORR see below), and subsequent pedal withdrawal score of 1 (PWR see below) were recorded. Following attaining a PWR of 1, infusion rate was reduced to 6.7 mg/kg/min, then titrated in an up-and-down fashion as required to maintain both dorsal recumbency, and a PWR = 1, to 10 min before cessation. Each study used three rats, with each group of rats also acting as their own ketamine control. Prior odds/evens randomisation determined the order of study drug administration was determined by with a recovery interval of at least three hours afforded between experiments. Records of PWR and RR were made at one-minute intervals throughout, from cessation of infusion to return of righting reflex (RORR), and from cessation of infusion to the animals displaying independent locomotion (walk).
Loss of Righting Reflex (LORR): This is primarily used to assess anaesthetic hypnotic effect. Righting reflex is judged absent when the rat fails to right from a position of dorsal recumbency to a position of sternal recumbency on three attempts performed in rapid succession. Dose to LORR is termed effective potency.

[2] = system: rats; assay: Pedal withdrawal reflex (PWR) scoring during intravenous infusion (analgaesic potency); assay type: in vivo; conditions: rat, i.v. infusion, dose to PWR = 1, mean (SEM), read-out: Analgaesia potency: minimal dose for loss of pedal withdrawal reflex (SEM)
Method: as §1, §2, §3
Pedal Withdrawal Reflex (PWR) scoring: Nociceptive testing in animals was conducted via 1 s application of constant pressure (firm digital pressure) over the forepaw of the animal. Pedal withdrawal reflex testing is primarily used to assess analgaesic effect, and responses are graded accordingly: 0, absent; 1, flicker; 2, moderate withdrawal; 3, fast withdrawal; 4, Fast withdrawal with cry/preceding apnoea (modified from).

[3] = system: rats; assay: Tail flick analgaesic assessment (composite tail flick latency, cTFL); assay type: in vivo; conditions: rat, 20 mg/kg i.v. infused over 10 min; AUC of %MPE-time curve 0-60 min; measure of analgaesic magnitude/duration
Method: Analgaesic assessment protocol: Animal preparation was in accord with the anaesthetic assessment protocol above. Three rats were used in each study. Following venous cannulation, animals underwent infusion of ketamine or experimental compound at 20 mg/kg over a ten minute interval. A tail flick analgaesia meter (Colombus Instruments, Colombus, Ohio) was then used to determine thermal pain sensitivity. Radiant heat was applied using a shutter-controlled lamp as a heat source focused on a spot located 6–8 cm from the tip of the tail. The intensity of the beam was set at a level producing basal latency times between 2 and 4 s. To prevent thermal tissue injury the cut off time as set at 10 s. A digital response time indicator with a resolution of 0.1s measured the time from initiation of stimulus until tail withdrawal (the flick; TFL).
The TFL response following infusion of control and study drugs was calculated as a percentage of the maximum possible effect (MPE) such that:%MPE = [TFL (post-drug) – TFL (pre-drug)/10 s – TFL (pre-drug)] × 100%(1)
TFL latency was recorded at 5 min intervals from cessation of study drug infusion (time zero) to 60 min. Individual %MPE-time curves were constructed for each animal, and the area under the curve (AUC) adopted as a composite measure of induced analgaesia (cTFL).

[4] = Drug half-life in rats; conditions: rat, in vivo
Source text: Table 1 Biological and physiochemical data for esters of ring-substituted ketamine analogues. | column: Rat / t½ ^e (min)

[5] = target: N-methyl-D-aspartate receptor; assay: Inhibition of the NMDA receptor (Eurofins Panlabs Taiwan); assay type: binding; conditions: conducted by Eurofins Panlabs Taiwan
Method: as §1

[6] = system: rats; assay: Behavioural dysfunction scoring during recovery from infusion; assay type: in vivo; conditions: rat, during wake-up, sum score 0 (no effect) to 4 (severe dysfunction), mean (SEM)
Method: as §1
Behavioural dysfunction scoring: This was undertaken according to the following table. Observations were made over a one minute interval every five minutes from cessation of infusion until return of normal behaviours (total score = 0). A score of 1 was accorded for any positive behavioural aberration for each of four categories (maximal score 4) during wake-up.
Duration of any behavioural aberration was recorded from RORR as follows: score 0 = nil; score1 = 0–120 s; score 2 = 121–300 s; score 3 = 301–600 s; score 4 = 600+ s.

| Structure (SMILES) | minimal effective dose [1] [mg/kg] | minimal effective dose [2] [mg/kg] | Analgaesia cTFL (composite tail flick latency) [3] [s] | half-life [4] [min] | IC50 [5] [µM] | Behavioural dysfunction Score (SEM): severity on recovery [6] | Behavioural dysfunction Score (SEM): severity on recovery ([6]; listed as ketamine) |
| --- | --- | --- | --- | --- | --- | --- | --- |
| CNC1(c2ccccc2Cl)CCCCC1=O (stereo not shown) [compound 1, ketamine] | 21 | 28 | 671 | 44.4 | 0.7 | 3 (0) | 3 |
| CC(C)OC(=O)CCNC1(c2ccccc2Cl)CCCCC1=O (stereo not shown) [5a] | 33 | 37 | 1384 | 3.4 | 134 | 2 (1) | – |
| COC(=O)CCCCNC1(c2ccccc2Cl)CCCCC1=O (stereo not shown) [5b] | 34 | 44 | 374 | 0.7 | 3.2 | 2 (0) | – |
| Cc1cccc(C2(NCCC(=O)OC(C)C)CCCCC2=O)c1 (stereo not shown) [11a] | 38 | 50 | 63 | – | 466 | 2 (1) | – |
| COC(=O)CCCCNC1(c2ccccc2C)CCCCC1=O (stereo not shown) [6b] | 37 | 43 | 91 | – | 3.4 | 1 (0) | – |
| Cc1ccc(C2(NCCC(=O)OC(C)C)CCCCC2=O)cc1 (stereo not shown) [16a] | 47 | 52 | 650 | – | 161 | 1 (0) | – |
| CC(C)OC(=O)CCNC1(c2ccccc2F)CCCCC1=O (stereo not shown) [4a] | 59 | 62 | 1297 | – | 249 | 1 (0) | – |
| COC(=O)CCCCNC1(c2ccccc2OC)CCCCC1=O (stereo not shown) [7b] | 34 | 49 | 2332 | – | > 1000 | 3 (1) | – |
| COc1ccccc1C1(NCCC(=O)OC(C)C)CCCCC1=O (stereo not shown) [7a] | > 200 | > 200 | 313 | – | 172 | 0 (0) | – |
| COC(=O)CCCCNC1(c2ccc(Cl)cc2)CCCCC1=O (stereo not shown) [15b, Methyl 5-((1-(4-chlorophenyl)-2-oxocyclohexyl)amino)pentanoate] | 89 | 100 | 576 | – | 101 | 3 (1) | – |
| CC(C)OC(=O)CCNC1(c2ccccc2)CCCCC1=O (stereo not shown) [3a] | > 200 | > 200 | 0 | – | > 1000 | 0.5 (0.7) | – |
| CC(C)OC(=O)CCNC1(c2cccc(Cl)c2)CCCCC1=O (stereo not shown) [10a] | 67 | 58 | 332 | – | 164 | 1 (0) | – |
